Measurements published in publication PMC3383612 (Chemical biology & drug design, 2011).

Legend:
spASADH [1] = target: T1, spASADH (Streptococcus pneumoniae, UniProt Q8DQ00); conditions: in words; ref [14]; cited from earlier work
T1 sequence (Q8DQ00 1-358): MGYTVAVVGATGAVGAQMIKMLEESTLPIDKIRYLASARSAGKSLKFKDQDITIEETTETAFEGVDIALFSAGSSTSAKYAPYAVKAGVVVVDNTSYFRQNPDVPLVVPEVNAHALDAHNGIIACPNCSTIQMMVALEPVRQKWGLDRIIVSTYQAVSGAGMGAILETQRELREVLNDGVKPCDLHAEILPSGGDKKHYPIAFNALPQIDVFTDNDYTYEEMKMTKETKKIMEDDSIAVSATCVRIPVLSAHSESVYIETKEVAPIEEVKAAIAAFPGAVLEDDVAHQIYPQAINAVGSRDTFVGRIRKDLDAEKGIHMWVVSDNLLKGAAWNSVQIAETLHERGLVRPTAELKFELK

spASADH [2] = target: T1, spASADH; assay: Kinetic inhibition of spASADH; assay type: biochemical
ASADH = ASADH (Vibrio cholerae serotype O1, UniProt Q9KQG2); assay: Kinetic inhibition of ASADH by substrate analogue; assay type: biochemical; conditions: inhibitor of ASADH, enzyme form not stated
ASADH, sequence (Q9KQG2 whole entry): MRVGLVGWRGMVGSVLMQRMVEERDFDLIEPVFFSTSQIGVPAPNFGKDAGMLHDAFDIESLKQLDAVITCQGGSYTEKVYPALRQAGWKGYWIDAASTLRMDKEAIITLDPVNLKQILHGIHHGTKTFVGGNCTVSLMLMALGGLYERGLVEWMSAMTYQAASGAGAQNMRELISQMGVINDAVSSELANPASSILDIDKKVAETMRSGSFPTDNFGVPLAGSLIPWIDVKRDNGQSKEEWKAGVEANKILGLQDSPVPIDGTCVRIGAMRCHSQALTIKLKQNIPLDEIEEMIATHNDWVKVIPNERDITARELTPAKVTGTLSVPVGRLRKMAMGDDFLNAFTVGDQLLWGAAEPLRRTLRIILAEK

## NC(CCCC(=O)O)C(=O)O (racemic) [DL-2-aminoadipate]
spASADH [1]
  inhibitory activity: little inhibitory activity

## Nc1cc(C(=O)O)ccc1C(=O)O [2-aminoterephthalate]
spASADH [2]
  Ki: 780 µM
spASADH [2]; ratio of Ki values
  enhanced affinity relative to terephthalic acid: greater than 6 fold

## C=CC[S@+]([O-])C[C@H](N)C(=O)O [S-allyl-L-cysteine sulfoxide]
ASADH
  Ki: 8 µM

## O=C(O)c1ccc(C(=O)O)cc1 [Terephthalic acid, benzene-1,4-dicarboxylic acid]
spASADH [2]
  Ki: ~5000 µM

## O=C(O)C1CCC(C(=O)O)CC1 (stereo not drawn) [cyclohexane-1,4-dicarboxylate]
spASADH [2]; ratio of Ki values
  higher affinity than 2-aminoterephthalate: 2 fold
